Measured values reported in patent publication US20240124408A1 (Sanofi, priority 2020, published 2024).
pEC50: −log10 of the molar value.

What was measured:
Assay type in all cases: cell-based
human TRPM8 [1] = target: T1, human TRPM8 (Homo sapiens, UniProt Q7Z2W7); test: In vitro human TRPM8 fluorescence calcium flux assay (recombinant CHO cells, Fluo4-AM, FDSS6000); conditions: recombinant CHO cells expressing human TRPM8; menthol-related EC50, normalized to 100 μM menthol
T1 construct: expressed in transfected cells; host or cells: CHO (p658 mammalian expression vector)
T1 sequence (Q7Z2W7 whole entry): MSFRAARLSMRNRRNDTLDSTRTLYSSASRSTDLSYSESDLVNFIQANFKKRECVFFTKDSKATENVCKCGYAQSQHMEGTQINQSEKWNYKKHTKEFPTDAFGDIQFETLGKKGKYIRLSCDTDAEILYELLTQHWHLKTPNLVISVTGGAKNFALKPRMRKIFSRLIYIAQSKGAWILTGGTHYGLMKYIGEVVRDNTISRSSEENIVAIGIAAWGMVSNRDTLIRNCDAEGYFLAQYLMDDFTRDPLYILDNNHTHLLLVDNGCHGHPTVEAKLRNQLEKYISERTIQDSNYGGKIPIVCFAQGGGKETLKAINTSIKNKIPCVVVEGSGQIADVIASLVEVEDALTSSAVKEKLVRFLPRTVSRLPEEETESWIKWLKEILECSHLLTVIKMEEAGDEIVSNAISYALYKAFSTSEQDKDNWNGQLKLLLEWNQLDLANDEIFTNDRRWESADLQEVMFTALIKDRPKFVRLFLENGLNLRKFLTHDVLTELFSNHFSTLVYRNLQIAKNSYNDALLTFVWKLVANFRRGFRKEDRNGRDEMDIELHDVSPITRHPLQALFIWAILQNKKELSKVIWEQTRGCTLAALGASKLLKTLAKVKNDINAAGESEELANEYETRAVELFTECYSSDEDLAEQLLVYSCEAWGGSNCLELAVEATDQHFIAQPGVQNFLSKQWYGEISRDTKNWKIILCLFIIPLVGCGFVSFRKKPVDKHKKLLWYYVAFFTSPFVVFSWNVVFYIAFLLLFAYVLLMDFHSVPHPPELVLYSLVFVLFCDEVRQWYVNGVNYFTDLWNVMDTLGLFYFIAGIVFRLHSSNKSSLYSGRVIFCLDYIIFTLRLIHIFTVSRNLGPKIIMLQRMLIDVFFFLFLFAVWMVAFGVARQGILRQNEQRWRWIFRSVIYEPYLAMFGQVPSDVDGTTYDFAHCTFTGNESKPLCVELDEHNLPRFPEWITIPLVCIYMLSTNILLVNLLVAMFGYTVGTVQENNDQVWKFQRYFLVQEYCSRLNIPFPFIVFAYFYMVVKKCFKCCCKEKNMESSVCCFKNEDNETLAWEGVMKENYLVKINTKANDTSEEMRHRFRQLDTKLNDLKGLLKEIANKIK
In short: (§1)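 CHO cells stably expressing pig or human TRPM8, loaded with 2 μM Fluo4-AM in HBSS/20 mM HEPES/0.1% BSA/2.5 mM probenecid for 1 h at RT. Intracellular calcium read kinetically for 3 min after compound addition. EC50 from sixteen-point curves, normalized to 100 μM menthol maximal response.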

human TRPM8 [2] = target: T1, human TRPM8; test: In vitro human TRPM8 automated patch-clamp assay (SyncroPatch 384PE, CHO cells); conditions: CHO cells expressing human TRPM8, 28° C.
Description: (§2) In Vitro Pig and Human TRPM8 Automated Patch-Clamp Assays
(§3) Automated whole-cell recordings of compound effects were performed on the SyncroPatch 384PE (Nanion Technologies, Munich, Germany) incorporated into a Biomek FX pipetting robot (Beckman Coulter, Jersey City, NJ, USA) using the same engineered CHO cell lines expressing human or pig TRPM8 channels. Data acquisition and analysis were performed with the proprietary software PatchControl 384 and DataControl 384, respectively (Nanion Technologies, Munich, Germany). All recordings were carried out using planar borosilicate glass patch clamp chips in a 384-microtiter plate format with patch hole resistances of 2-4 MO. For recordings, standard intracellular solution was used containing (in mM): 130 KF, 4 NaCl, 1 MgCl2, 0.5 CaCl2, 10 HEPES and 10 EGTA/KOH (pH 7.2) and standard extracellular solution contained in mM: 150 NaCl, 4 KCl, 0.5 CaCl2, 1 MgCl2 and 10 HEPES (pH 7.3).
(§4) Prior to the electrophysiological measurements, cells were harvested using Accutase (GIBCO, Fisher Scientific) and resuspended in warmed extracellular solution. The cell suspension was kept in the dedicated cell reservoir at 28° C. at a 1 million/ml cell density and shaken at 500 rounds per min (rpm). Experiments were performed at 28° C. throughout. Cells were distributed in high resistance 4-holes-per-well Nanion chips where they were caught on the patch holes by application of a −80 mbar pressure. The cell membrane was ruptured to obtain the whole-cell configuration with a pressure pulse of −250 mbar for 2 seconds. Voltage protocols were constructed using PatchControl 384. The cells were held at a holding potential of −60 mV and TRPM8 currents were recorded using a ramp protocol from −80 to +80 mV every 5 seconds before and after compound addition. Resulting currents were recorded at both −80 and +80 mV and current kinetics were exported and analyzed. From each plate, control wells with 200 μM menthol were recorded to validate the assay. One concentration of compound was applied to each of the other wells. For each concentration, compound response was determined by subtracting the baseline current recorded before compound addition from the maximum peak elicited currents obtained after compound addition. Then, each compound response was normalized to control condition without compound and maximum current (Emax) obtained for each compound. Nanion DataControl 384 software plotted current response for each compound concentration and was able to calculate an EC50 value for each active compound.

pig TRPM8 [3] = target: T2, pig TRPM8 (Sus scrofa, UniProt F1SM15); test: In vitro pig TRPM8 automated patch-clamp assay (SyncroPatch 384PE, CHO cells); conditions: CHO cells expressing pig TRPM8, 28° C.
T2 construct: expressed in transfected cells; host or cells: CHO (pcDNA5/FRT/TO vector; hygromycin B and blasticidin selection)
T2 sequence (F1SM15 1-1104): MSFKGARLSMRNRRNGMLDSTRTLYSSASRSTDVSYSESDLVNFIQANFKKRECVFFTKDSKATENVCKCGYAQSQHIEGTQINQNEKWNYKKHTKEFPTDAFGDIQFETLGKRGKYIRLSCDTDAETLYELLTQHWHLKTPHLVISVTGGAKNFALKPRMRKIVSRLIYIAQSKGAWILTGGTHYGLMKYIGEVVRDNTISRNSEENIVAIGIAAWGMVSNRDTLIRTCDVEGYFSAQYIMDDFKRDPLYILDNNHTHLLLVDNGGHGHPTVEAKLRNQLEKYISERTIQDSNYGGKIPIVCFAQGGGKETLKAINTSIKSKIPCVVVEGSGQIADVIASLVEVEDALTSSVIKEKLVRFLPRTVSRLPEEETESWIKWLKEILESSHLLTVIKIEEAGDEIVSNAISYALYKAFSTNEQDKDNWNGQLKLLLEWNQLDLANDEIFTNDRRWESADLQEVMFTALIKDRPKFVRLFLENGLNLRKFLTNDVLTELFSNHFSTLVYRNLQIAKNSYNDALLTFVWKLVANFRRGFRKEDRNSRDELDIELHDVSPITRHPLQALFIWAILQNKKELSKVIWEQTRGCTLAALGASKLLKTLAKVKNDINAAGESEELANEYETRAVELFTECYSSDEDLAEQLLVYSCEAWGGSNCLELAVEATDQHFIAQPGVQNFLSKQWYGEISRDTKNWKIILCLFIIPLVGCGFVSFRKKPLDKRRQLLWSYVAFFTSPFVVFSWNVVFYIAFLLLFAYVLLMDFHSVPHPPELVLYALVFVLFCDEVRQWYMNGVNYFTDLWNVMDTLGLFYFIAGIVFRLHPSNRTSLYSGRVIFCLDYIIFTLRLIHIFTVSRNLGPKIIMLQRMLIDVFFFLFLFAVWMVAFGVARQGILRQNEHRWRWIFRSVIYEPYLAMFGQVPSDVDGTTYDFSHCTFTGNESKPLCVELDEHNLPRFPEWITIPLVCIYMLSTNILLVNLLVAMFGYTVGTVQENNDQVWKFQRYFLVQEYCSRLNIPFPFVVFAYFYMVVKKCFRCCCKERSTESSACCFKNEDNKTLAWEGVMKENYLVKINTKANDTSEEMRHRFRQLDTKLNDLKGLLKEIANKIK
Description: as §2, §3, §4

pig TRPM8 [4] = target: T2, pig TRPM8; test: In vitro pig TRPM8 fluorescence calcium flux assay (recombinant CHO cells, Fluo4-AM, FDSS6000); conditions: recombinant CHO cells expressing pig TRPM8; menthol-related EC50, normalized to 100 μM menthol
In short: as §1

pEC50 (human TRPM8 [1])	pEC50 (human TRPM8 [2])	pEC50 (pig TRPM8 [3])	pEC50 (pig TRPM8 [4])	SMILES
8.62	6.33	6.56	8.74	CC(C)[C@@H]1CC[C@@H](C)C[C@@]1(O)C(=O)NCC(=O)c1ccccc1O [Example 38, (1S,2S,5R)-1-hydroxy-N-(2-(2-hydroxyphenyl)-2-oxoethyl)-2-isopropyl-5-methylcyclohexane-1-carboxamide]
8.92	6.34	6.37	9.05	CC(C)[C@@H]1CC[C@@H](C)C[C@@]1(O)C(=O)NCC(=O)c1cccc(O)c1 [Example 39, (1S,2S,5R)-1-hydroxy-N-(2-(3-hydroxyphenyl)-2-oxoethyl)-2-isopropyl-5-methylcyclohexane-1-carboxamide]
6.71	5.96	5.29	7.13	CC(C)[C@@H]1CC[C@@H](C)C[C@@]1(O)C(=O)NC[C@H](O)c1cccc(O)c1 [Example 41, (1S,2S,5R)-1-hydroxy-N-((2R)-hydroxy-2-(3-hydroxyphenyl)ethyl)-2-isopropyl-5-methylcyclohexane-1-carboxamide]
7.91	6.04	6.04	8.42	CC(C)[C@@H]1CC[C@@H](C)C[C@@]1(O)C(=O)NC[C@@H](O)c1cccc(O)c1 [Example 42, (1S,2S,5R)-1-hydroxy-N-((2S)-hydroxy-2-(3-hydroxyphenyl)ethyl)-2-isopropyl-5-methylcyclohexane-1-carboxamide]
6.72	5.40	5.40	7.24	CC(C)[C@@H]1CC[C@@H](C)C[C@@]1(O)C(=O)NC[C@H](O)c1cccc(CO)c1 [Example 43, (1S,2S,5R)-1-hydroxy-N-((2R)-hydroxy-2-(3-(hydroxymethyl)phenyl)ethyl)-2-isopropyl-5-methylcyclohexane-1-carboxamide]
7.46	5.74	6.15	7.97	CC(C)[C@@H]1CC[C@@H](C)C[C@@]1(O)C(=O)NC[C@@H](O)c1cccc(CO)c1 [Example 44, (1S,2S,5R)-1-hydroxy-N-((2S)-hydroxy-2-(3-(hydroxymethyl)phenyl)ethyl)-2-isopropyl-5-methylcyclohexane-1-carboxamide]
7.87	5.58	5.34	8.30	CC(C)[C@@H]1CC[C@@H](C)C[C@@]1(O)C(=O)NCCc1cccc(C#N)c1 [Example 48, (1S,2S,5R)—N-(3-cyanophenethyl)-1-hydroxy-2-isopropyl-5-methylcyclohexane-1-carboxamide]
8.62	6.70	6.49	8.59	CC(C)[C@@H]1CC[C@@H](C)C[C@@]1(O)C(=O)NCCc1ccccc1CCN [Example 53, (1S,2S,5R)—N-(2-(2-aminoethyl)phenethyl)-1-hydroxy-2-isopropyl-5-methylcyclohexane-1-carboxamide]
6.99	5.35	5.45	7.27	CC(C)[C@@H]1CC[C@@H](C)C[C@@]1(O)C(=O)NC[C@@H](OCC(=O)O)c1ccccc1 [Example 55, 2-((S)-2-((1S,2S,5R)-1-hydroxy-2-isopropyl-5-methylcyclohexane-1-carboxamido)-1-phenylethoxy)acetic acid]
7.71	< 5.00	5.21	7.95	CC(C)[C@@H]1CC[C@@H](C)C[C@@]1(O)C(=O)NC[C@@H](OCCO)c1ccccc1 [Example 56, (1S,2S,5R)-1-hydroxy-N—((S)-2-(2-hydroxyethoxy)-2-phenylethyl)-2-isopropyl-5-methylcyclohexane-1-carboxamide]

The remaining lines, values behind:

SMILES	pEC50 (human TRPM8 [1])	pEC50 (human TRPM8 [2])	pEC50 (pig TRPM8 [3])	pEC50 (pig TRPM8 [4])
CC(C)[C@@H]1CC[C@@H](C)C[C@@]1(O)C(=O)NCC1(O)CCc2ccccc21 (stereo partly drawn) [Example 23, (1S,2S,5R)-1-hydroxy-N-((1-hydroxy-2,3-dihydro-1H-inden-1-yl)methyl)-2-isopropyl-5-methylcyclohexane-1-carboxamide]	8.15	6.30	5.97	8.22
CC(C)[C@@H]1CC[C@@H](C)C[C@@]1(O)C(=O)NCCc1ccccc1OC[C@H](O)CO [Example 24, (1S,2S,5R)—N-(2-((R)-2,3-dihydroxypropoxy)phenethyl)-1-hydroxy-2-isopropyl-5-methylcyclohexane-1-carboxamide]	8.11	5.59	5.77	7.87
COC(=O)[C@H](N)COc1cccc(CCNC(=O)[C@]2(O)C[C@H](C)CC[C@H]2C(C)C)c1 [Example 26, methyl O-(3-(2-((1S,2S,5R)-1-hydroxy-2-isopropyl-5-methylcyclohexane-1-carboxamido)ethyl)phenyl)-D-serinate]	8.43	5.74	5.96	8.26
COC(=O)[C@@H](N)COc1cccc(CCNC(=O)[C@]2(O)C[C@H](C)CC[C@H]2C(C)C)c1 [Example 27, methyl O-(3-(2-((1S,2S,5R)-1-hydroxy-2-isopropyl-5-methylcyclohexane-1-carboxamido)ethyl)phenyl)-L-serinate]	8.51	5.62	5.40	7.99
CCOC(=O)c1cccc(CCNC(=O)[C@]2(O)C[C@H](C)CC[C@H]2C(C)C)c1 [Example 28, ethyl 3-(2-((1S,2S,5R)-1-hydroxy-2-isopropyl-5-methylcyclohexane-1-carboxamido)ethyl)benzoate]	6.60	5.84	5.27	6.51
CC(C)[C@@H]1CC[C@@H](C)C[C@@]1(O)C(=O)NCC(O)c1cccc(O)c1 (stereo partly drawn) [Example 32, (1S,2S,5R)-1-hydroxy-N-(2-hydroxy-2-(3-hydroxyphenyl)ethyl)-2-isopropyl-5-methylcyclohexane-1-carboxamide]	8.52	5.91	6.29	8.52
COC(=O)COc1cccc(C(O)CNC(=O)[C@]2(O)C[C@H](C)CC[C@H]2C(C)C)c1 (stereo partly drawn) [Example 33, methyl 2-(3-(1-hydroxy-2-((1S,2S,5R)-1-hydroxy-2-isopropyl-5-methylcyclohexane-1-carboxamido)ethyl)phenoxy)acetate]	7.19	5.38	5.37	7.42
COC(=O)c1cccc(C(O)CNC(=O)[C@]2(O)C[C@H](C)CC[C@H]2C(C)C)c1 (stereo partly drawn) [Example 34, methyl 3-(1-hydroxy-2-((1S,2S,5R)-1-hydroxy-2-isopropyl-5-methylcyclohexane-1-carboxamido)ethyl)benzoate]	7.01	5.34	5.49	7.10
CC(C)[C@@H]1CC[C@@H](C)C[C@@]1(O)C(=O)NCC(O)c1ccccc1O (stereo partly drawn) [Example 35, (1S,2S,5R)-1-hydroxy-N-(2-hydroxy-2-(2-hydroxyphenyl)ethyl)-2-isopropyl-5-methylcyclohexane-1-carboxamide]	8.52	6.00	5.88	8.52
COC(=O)COc1ccccc1C(O)CNC(=O)[C@]1(O)C[C@H](C)CC[C@H]1C(C)C (stereo partly drawn) [Example 36, methyl 2-(2-(1-hydroxy-2-((1S,2S,5R)-1-hydroxy-2-isopropyl-5-methylcyclohexane-1-carboxamido)ethyl)phenoxy)acetate]	7.33	5.73	5.42	7.44
CC(C)[C@@H]1CC[C@@H](C)C[C@@]1(O)C(=O)NCC(O)c1cccc(CO)c1 (stereo partly drawn) [Example 37, (1S,2S,5R)-1-hydroxy-N-(2-hydroxy-2-(3-(hydroxymethyl)phenyl)ethyl)-2-isopropyl-5-methylcyclohexane-1-carboxamide]	7.77	5.51	5.63	7.96
